Reference: patent US20070160975A1, “Method for the Identification of Drugs to Treat Stroke at Delayed Timepoints” (UNIVERSITY OF SOUTH FLORIDA, priority 2006, published 2007)

Key:
[1] = test system: primary microglial cultures; test: LPS stimulated TNF-α release, ELISA; type: cell-based, rat; details: TNF-α by ELISA
Experimental: (§1) FIG. 2 is a graph illustrating that sigma receptor activation reduces LPS-induced cytotoxin production. […] Nitric oxide levels were quantified using the Griess reaction while TNF-α levels were measured by ELISA.
(§2) To gauge anti-inflammatory action, primary microglial cultures will be treated with lipopolysaccharide, which elicits a robust inflammatory response from these cells. Compounds that are effective agonist stroke at delayed timepoints are able to block the LPS-induced inflammatory response in microglial cells. The inflammatory cytokine, TNF-α and nitric oxide are two inflammatory agents to be measured to determine anti-inflammatory action of the compound. […] Using these two in vitro screening methods, other compounds that will be useful in treating stroke will be discovered.
TNF-α ELISA-Capture antibody (#MAB510 anti-rat antibody TNF R&D biosysterns) will be diluted with 2 μg/ml in coating buffer and incubated at 4° C. overnight. The capture antibody will then coat a high protein binding 96 well plate. Each well of the 96 well plate will be aspirated and washed three times with wash buffer. […] During incubation, direct light will be avoided 50 μl of 1 M H2SO4 will be added to each well and optical density will be determined within 30 minutes using a microplate reader set at 450 nm.

[2] = test system: primary microglial cultures; test: LPS stimulated nitric oxide release, Griess reaction; type: cell-based, rat; details: nitric oxide by Griess reaction
Experimental: as §1, §2
Nitric Oxide Determination: The supematant from treated primary rat rnicrogiia cultures will be harvested, placed in 1.5 ml micro-centrifuge tubes and then centrifuged in a bench top micro-centrifuge at 13,000×g for 1 minute. The supernatant will be withdrawn and placed in a clean, labeled micro-centrifuge tube. Standards (between 100 μM and 1 μM) will be prepared by diluting stock 1 mM Sodium Nitrite, contained in the kit, with DMEM in 1.5 ml micro centrifuge tubes. […] The absorbance at 458 nm will be measured in a spectrophotometer capable of reading 96 well plates.

## Cc1ccccc1N=C(N)Nc1ccccc1C [DTG]
[1]
  LPS stimulated TNF-α release: dose dependently reduced
[2]
  LPS stimulated nitric oxide release: dose dependently reduced
